Measured values reported in patent US20070218462A1, “Method of Predicting a Benefit of Antioxidant Therapy for Prevention of Cardiovascular Disease in Hiperglycemic Patients” (priority 2003, published 2007).
“Also recorded” adds a separate entry of the source.

Assays:
[1] = test system: patients at high risk of cardiovascular events; assay: HOPE study: relative risk of primary CV outcomes with vitamin E or ramipril, by haptoglobin phenotype; assay type: in vivo, human
Source text: HOPE study and patient characteristics: The Heart Outcomes Prevention Evaluation (HOPE) study was designed to test the hypotheses that two preventive intervention strategies, namely angiotensin-converting enzyme (ACE) inhibition or vitamin E, would improve morbidity and mortality in patients at high risk of cardiovascular events compared with placebo. Patients were included in the study who were considered to be at high risk of future fatal or non-fatal cardiovascular events, by virtue of their age (>55 years), existing or previous cardiovascular disease, or diabetes. Diabetics had at least one other risk factor, either known vascular disease or other factors such as cigarette smoking, high cholesterol or hypertension. Ramipril or placebo was added to concomitant medication, which included, in a substantial proportion of patients, antihypertensive drugs (excluding ACE-I), lipid-lowering agents or aspirin. The HOPE study design and protocols have been previously described in detail (see, for example, The Heart Outcomes Prevention Evaluation Study Investigators NE J Med, 2000; 342:154-60 and […] Angioten Aldost Sys 2000;1:18-20). Briefly, the study population consisted over 9,451 patients at high risk of CVD (3,654 DM). […] Patients were followed for a mean of 4.5 years. The primary study outcome was the composite of non-fatal MI, stroke or cardiovascular death. For samples from the HOPE Study, haptoglobin phenotyping was performed from 10 ul of plasma by polyacrylamide gel electrophoresis according to established methods (Hochberg I et al Atherosclerosis 2002;161:441-446). A signature banding pattern is obtained from individuals who are homozygous for the 1 allele (Hp 1-1), homozygous for the 2 allele (Hp 2-2) or who are heterozygous at the haptoglobin locus (Hp 2-1). We have established 100% concordance between the haptoglobin phenotype as determined from plasma and the haptoglobin genotype as determined from genomic DNA by the polymerase chain reaction (Koch W, et al Clin Chem 2002; 277:13635-40). An unambiguous haptoglobin phenotype was obtained on greater than 99.6% of all samples assayed. Haptoglobin phenotyping was performed with no knowledge of the patients clinical or treatment status. All analyses of the HOPE Study data were carried out using SAS 6.02. Baseline characteristics of patients according to haptoglobin were compared by t tests or χ^2 tests as appropriate. […] Patient characteristics of HOPE samples undergoing haptoglobin phenotyping: Haptoglobin phenotype was obtained on 3176 patients (1078 diabetics) from the origianl HOPE cohort for whom plasma was originally archived. These patients represented a randomly selected consecutive series of cohort according to CVD risk factors and treatment regimen is shown in Table 4 below.

[2] = test system: unselected samples or Diabetic patients; assay: CVD outcomes and Vitamin C supplementation (data not shown); assay type: in vivo, human
[3] = test system: patients at high risk of cardiovascular events; conditions: daily administration of 400 IU for 4.5 years; original HOPE study report; cited from earlier work
[4] = All patients, Hp 1-1, with ramipril vs without ramipril
[5] = All patients, Hp 2-1, with ramipril vs without ramipril
[6] = All patients, Hp 2-2, with ramipril vs without ramipril
[7] = DM Patients only, Hp 1-1, with ramipril vs without ramipril
[8] = DM Patients only, Hp 2-1, with ramipril vs without ramipril
[9] = DM Patients only, Hp 2-2, with ramipril vs without ramipril
[10] = entire sample, regardless of haptoglobin type
[11] = All patients, Hp 1-1, with vitamin E vs without vitamin E
[12] = All patients, Hp 2-1, with vitamin E vs without vitamin E
[13] = All patients, Hp 2-2, with vitamin E vs without vitamin E
[14] = DM Patients only, Hp 1-1, with vitamin E vs without vitamin E
[15] = DM Patients only, Hp 2-1, with vitamin E vs without vitamin E
[16] = DM Patients only, Hp 2-2, with vitamin E vs without vitamin E

## CCOC(=O)[C@H](CCc1ccccc1)N[C@@H](C)C(=O)N1[C@H](C(=O)O)C[C@@H]2CCC[C@@H]21 [Ramipril, ramipril]
[1]; [4]
  Relative Risk Ratio, CV death (95% CI): 0.58 (0.29-1.18)
  Relative Risk Ratio, MI (95% CI): 0.61 (0.35-1.06)
  Relative Risk Ratio, Primary (95% CI): 0.74 (0.47-1.17)
  Relative Risk Ratio, Stroke (95% CI): 0.91 (0.33-2.51)
[1]; [5]
  Relative Risk Ratio, CV death (95% CI): 1.02 (0.66-1.58)
  Relative Risk Ratio, MI (95% CI): 0.88 (0.64-1.20)
  Relative Risk Ratio, Primary (95% CI): 0.81 (0.62-1.07)
  Relative Risk Ratio, Stroke (95% CI): 0.68 (0.38-1.21)
[1]; [6]
  Relative Risk Ratio, CV death (95% CI): 0.87 (0.55-1.37)
  Relative Risk Ratio, MI (95% CI): 0.83 (0.59-1.17)
  Relative Risk Ratio, Primary (95% CI): 0.76 (0.57-1.02)
  Relative Risk Ratio, Stroke (95% CI): 0.53 (0.27-1.04)
[1]; [7]
  Relative Risk Ratio, CV death (95% CI): 0.42 (0.13-1.36)
  Relative Risk Ratio, MI (95% CI): 0.53 (0.19-1.46)
  Relative Risk Ratio, Primary (95% CI): 0.78 (0.35-1.75)
  Relative Risk Ratio, Stroke (95% CI): 1.29 (0.21-7.82)
[1]; [8]
  Relative Risk Ratio, CV death (95% CI): 0.97 (0.50-1.88)
  Relative Risk Ratio, MI (95% CI): 0.99 (0.81-2.13)
  Relative Risk Ratio, Primary (95% CI): 0.97 (0.72-1.61)
  Relative Risk Ratio, Stroke (95% CI): 0.58 (0.25-1.34)
[1]; [9]
  Relative Risk Ratio, CV death (95% CI): 0.56 (0.28-1.12)
  Relative Risk Ratio, MI (95% CI): 0.57 (0.38-1.12)
  Relative Risk Ratio, Primary (95% CI): 0.57 (0.36-0.90)
  Relative Risk Ratio, Stroke (95% CI): 0.42 (0.16-1.09)
[1]; [10]
  benefit of ramipril supplementation for any of the primary CV outcomes: no significant benefit
[1]; other haptoglobin phenotypes (Hp 1-1, Hp 1-2)
  benefit to ramipril for any of the primary CV outcomes: no benefit
[1]; unselected DM group
  benefit of ramipril supplementation: no significant benefit

## O=C1O[C@H]([C@@H](O)CO)C(O)=C1O [Vitamin C]
[2]
  correlation between CVD outcomes and Vitamin C supplementation: no correlation could be found

## CC(=O)Oc1c(C)c(C)c2c(c1C)CC[C@@](C)(CCC[C@H](C)CCC[C@H](C)CCCC(C)C)O2 [Vitamin E, RRR-a-tocophorol acetate]
[1]; [11]
  Relative Risk Ratio, CV death (95% CI): 1.10 (0.56-2.12)
  Relative Risk Ratio, MI (95% CI): 0.79 (0.47-1.33)
  Relative Risk Ratio, Primary (95% CI): 0.97 (0.63-1.50)
  Relative Risk Ratio, Stroke (95% CI): 1.50 (0.56-4.04)
[1]; [12]
  Relative Risk Ratio, CV death (95% CI): 1.07 (0.69-1.64)
  Relative Risk Ratio, MI (95% CI): 1.02 (0.75-1.38)
  Relative Risk Ratio, Primary (95% CI): 0.96 (0.74-1.25)
  Relative Risk Ratio, Stroke (95% CI): 0.92 (0.53-1.60)
[1]; [13]
  Relative Risk Ratio, CV death (95% CI): 0.75 (0.48-1.16)
  Relative Risk Ratio, MI (95% CI): 0.94 (0.68-1.30)
  Relative Risk Ratio, Primary (95% CI): 0.92 (0.69-1.22)
  Relative Risk Ratio, Stroke (95% CI): 0.85 (0.46-1.57)
[1]; [14]
  Relative Risk Ratio, CV death (95% CI): 0.64 (0.21-1.92)
  Relative Risk Ratio, MI (95% CI): 0.83 (0.33-2.06)
  Relative Risk Ratio, Primary (95% CI): 0.84 (0.40-1.79)
  Relative Risk Ratio, Stroke (95% CI): 2.24 (0.41-12.4)
[1]; [15]
  Relative Risk Ratio, CV death (95% CI): 1.0 (0.53-1.93)
  Relative Risk Ratio, MI (95% CI): 0.99 (0.45-2.18)
  Relative Risk Ratio, Primary (95% CI): 1.08 (0.72-1.61)
  Relative Risk Ratio, Stroke (95% CI): 0.99 (0.45-2.18)
[1]; [16]
  Relative Risk Ratio, CV death (95% CI): 0.45 (0.23-0.90)
  Relative Risk Ratio, MI (95% CI): 0.57 (0.33-0.97)
  Relative Risk Ratio, Primary (95% CI): 0.70 (0.45-1.10)
  Relative Risk Ratio, Stroke (95% CI): 1.15 (0.47-2.82)
[1]; DM patients, other haptoglobin phenotypes (Hp 1-1 and Hp 2-1)
  benefit of vitamin E therapy for any of the primary CV outcomes: no significant benefit
[1]; [10]
  benefit of vitamin E supplementation for any of the primary CV outcomes: no significant benefit
[1]; unselected DM group
  benefit of vitamin E supplementation: no significant benefit; also recorded: no apparent benefit
[3]
  clinical benefit on cardiovascular (CV) outcomes: failed to demonstrate any clinical benefit
